# Laboratory results from ChEMBL document CHEMBL1781888, “Marianins A and B, prenylated phenylpropanoids from Mariannaea camptospora” (J Nat Prod, 2011).
# The source made the active and inactive calls. The rule behind the calls is not given here.
# Assays:
# [1] = tested on: MCF7; test: Cytotoxicity against human MCF7 cells after 48 hrs by MTT assay; type: functional, cell-based; details: MCF7, 48 h
# [2] = tested on: Escherichia coli; test: Antibacterial activity against Escherichia coli NIH-JC2 at 30 microg/mL; type: functional, organism-based
# [3] = tested on: HeLa; test: Cytotoxicity against human HeLa cells after 48 hrs by MTT assay; type: functional, cell-based
# [4] = tested on: Micrococcus luteus; test: Antibacterial activity against Micrococcus luteus ATCC 9343; type: functional
# [5] = tested on: Candida albicans; test: Antifungal activity against Candida albicans IFO1594 at 30 microg/mL; type: functional, organism-based
SMILES,IC50 [1],inhibition [2],IC50 [3],MIC [4],inhibition [5]
C=CC(C)(C)CC(=O)c1c(C)cc(OCC=C(C)C)cc1O [MARIANIN B],> 100 µM,inactive,> 100 µM,30 µg/mL,inactive
CC(C)=CCOc1cc(C)c2c(OCC=C(C)C)cc(=O)oc2c1 [MARIANIN A],39 µM,inactive,34 µM,15 µg/mL,inactive
